Reference: patent publication US7858644B2, “EP4 receptor antagonists” (Asterand UK Limited, priority 2003, dated 2010)

Tests used:
human EP2 receptor = target: T1, human EP2 receptor (Homo sapiens, UniProt P43116); assay: Binding ability to human EP2 receptor ([3H]PGE2 displacement); settings: read-out: pKi EP2 (converted)
T1 construct: expressed in transfected cells
Summary of the method: (§1)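 Membranes from cells stably transfected with human EP receptor cDNA were incubated to equilibrium with [3H]PGE2 and compound (0.1 to 10 000 nM). Non-specific binding was defined with 10 uM PGE2; bound radioligand was separated by vacuum filtration and counted by scintillation.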

human EP1 receptor = target: T2, human EP1 receptor (Homo sapiens, UniProt P34995); assay: Binding ability to human EP1 receptor ([3H]PGE2 displacement); settings: membranes from cells stably transfected with human EP receptor cDNA; [3H]PGE2 3.6 nM; Cheng-Prusoff from IC50; read-out: pKi EP1 (converted)
T2 construct: expressed in transfected cells
T2 sequence (P34995 1-402): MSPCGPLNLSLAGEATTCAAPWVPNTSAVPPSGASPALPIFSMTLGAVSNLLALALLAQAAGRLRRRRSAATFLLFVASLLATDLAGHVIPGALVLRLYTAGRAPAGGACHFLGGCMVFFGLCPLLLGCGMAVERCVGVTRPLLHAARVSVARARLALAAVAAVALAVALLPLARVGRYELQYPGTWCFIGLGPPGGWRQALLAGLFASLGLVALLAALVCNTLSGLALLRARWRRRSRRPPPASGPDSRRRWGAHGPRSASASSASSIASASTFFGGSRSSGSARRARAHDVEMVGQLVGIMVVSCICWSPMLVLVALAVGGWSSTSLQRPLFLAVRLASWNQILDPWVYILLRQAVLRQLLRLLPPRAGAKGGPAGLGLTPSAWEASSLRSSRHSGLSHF
Description: (§2) Membranes were prepared from cells stably transfected with human EP receptor cDNA. In brief, cells were cultured to confluency, scraped from culture flasks, and centrifuged (800 g, 8 minutes, 4° C.). Cells were twice washed in ice cold homogenisation buffer containing 10 mMTris-HCl, 1 mM EDTA. 2Na, 250 mM sucrose, 1 mM PMSF, 0.3 mM indomethacin, pH 7.4, homogenised and re-centrifuged as before. The supernatant was stored on ice and pellets re-homogenised and re-spun. Supernatants were pooled and centrifuged at 40000 g, 10 minutes, 4° C. Resultant membrane pellets were stored at −80° C. until use.
For assay, membranes expressing human EP4, EP3, EP2 or EP1 receptors were incubated in Millipore (MHVBN45) plates containing assay buffer, radiolabelled [^3H]PGE2 and 0.1 to 10 000 nM concentrations of compounds. Incubations were performed at suitable temperatures and for suitable times to allow equilibrium to be reached. Non-specific binding was determined in the presence of 10 uM PGE2. Bound and free radiolabel was separated by vacuum manifold filtration using appropriate wash buffers, and bound radiolabel was determined by scintillation counting. Constituents of each of the buffers are included in table 1 below.
(§3) This approach follows that set out in Kenakin, T. P., Pharmacologic analysis of drug receptor interaction. Raven Press, New York, 2nd edition.

human EP4 receptor = target: T3, human EP4 receptor (Homo sapiens, UniProt P35408); assay: Binding ability to human EP4 receptor ([3H]PGE2 displacement); settings: read-out: pKi EP4 (converted)
T3 construct: expressed in transfected cells
T3 sequence (P35408 whole entry): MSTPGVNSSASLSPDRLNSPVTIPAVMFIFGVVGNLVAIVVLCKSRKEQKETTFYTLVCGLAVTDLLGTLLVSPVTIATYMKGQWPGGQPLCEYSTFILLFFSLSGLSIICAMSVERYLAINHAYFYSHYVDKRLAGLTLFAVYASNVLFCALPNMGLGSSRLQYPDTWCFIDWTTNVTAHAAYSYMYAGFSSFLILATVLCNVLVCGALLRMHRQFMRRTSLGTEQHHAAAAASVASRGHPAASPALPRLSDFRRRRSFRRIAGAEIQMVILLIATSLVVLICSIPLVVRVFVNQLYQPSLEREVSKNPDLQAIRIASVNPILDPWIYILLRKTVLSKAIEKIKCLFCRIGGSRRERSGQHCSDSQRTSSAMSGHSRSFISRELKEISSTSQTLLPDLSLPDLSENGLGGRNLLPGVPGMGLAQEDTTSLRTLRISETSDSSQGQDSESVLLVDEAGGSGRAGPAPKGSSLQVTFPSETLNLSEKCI
Description: as §2
Incubations were performed at suitable temperatures and for suitable times to allow equilibrium to be reached. Non-specific binding was determined in the presence of 10 uM PGE2. Bound and free radiolabel was separated by vacuum manifold filtration using appropriate wash buffers, and bound radiolabel was determined by scintillation counting. Constituents of each of the buffers are included in table 1 below.
as §3

human EP3 receptor = target: T4, human EP3 receptor (Homo sapiens, UniProt P43115); assay: Binding ability to human EP3 receptor ([3H]PGE2 displacement); settings: membranes from cells stably transfected with human EP receptor cDNA; [3H]PGE2 2.5 nM; Cheng-Prusoff from IC50; read-out: pKi EP3 (converted)
T4 construct: expressed in transfected cells
T4 sequence (P43115 1-390): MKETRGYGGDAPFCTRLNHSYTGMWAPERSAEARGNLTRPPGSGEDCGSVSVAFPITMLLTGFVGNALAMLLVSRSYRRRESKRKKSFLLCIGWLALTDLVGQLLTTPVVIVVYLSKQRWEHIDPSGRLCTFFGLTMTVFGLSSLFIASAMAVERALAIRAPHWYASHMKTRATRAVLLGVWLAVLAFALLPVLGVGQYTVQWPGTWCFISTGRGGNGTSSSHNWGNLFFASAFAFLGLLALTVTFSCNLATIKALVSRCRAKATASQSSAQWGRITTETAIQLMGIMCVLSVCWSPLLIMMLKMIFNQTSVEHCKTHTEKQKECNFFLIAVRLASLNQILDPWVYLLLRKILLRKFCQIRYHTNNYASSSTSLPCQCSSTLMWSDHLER
Summary of the method: as §1

T1 sequence (P43116 whole entry): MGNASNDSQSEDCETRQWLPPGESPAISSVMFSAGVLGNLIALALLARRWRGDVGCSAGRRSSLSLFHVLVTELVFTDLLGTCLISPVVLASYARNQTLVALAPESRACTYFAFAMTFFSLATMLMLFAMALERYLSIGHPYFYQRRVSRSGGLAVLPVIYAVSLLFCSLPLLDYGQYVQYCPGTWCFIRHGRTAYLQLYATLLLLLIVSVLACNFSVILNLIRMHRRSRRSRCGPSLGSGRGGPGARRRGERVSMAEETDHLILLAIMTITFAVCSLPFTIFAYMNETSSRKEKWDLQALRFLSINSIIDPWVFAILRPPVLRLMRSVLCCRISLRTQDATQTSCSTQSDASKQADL

Row | SMILES | Ki (human EP2 receptor) | Ki (human EP1 receptor) | Ki (human EP4 receptor) | Ki (human EP3 receptor)
1 | COc1ccc(-c2ccc(OCc3cc(S(=O)(=O)NC(=O)c4ccccc4)oc3C)cc2)cc1 [Compound 49, 4-(4′-Methoxy-biphenyl-4-yloxymethyl)-5-methyl-furan-2-sulfonic acid benzoylamide] | > 10 µM | > 10 µM | < 0.01 µM | > 10 µM
2 | COc1ccc(-c2ccc(OCc3cc(CCC(=O)NS(=O)(=O)c4ccccc4)oc3C)cc2)cc1 [Compound 40, N-{3-[4-(4′-Methoxy-biphenyl-4-yloxymethyl)-5-methyl-furan-2-yl]-propionyl}-benzene sulfonamide] | > 10 µM | – | < 0.1 µM | > 10 µM
3 | Cc1oc(S(=O)(=O)NC(=O)Cc2ccccc2)cc1COc1ccc(-c2ccccc2)cc1 [Compound 62, 4-(Biphenyl-4-yloxymethyl)-5-methyl-furan-2-sulphonic acid phenylacetyl-amide] | > 10 µM | – | < 0.1 µM | > 10 µM
4 | Cc1oc(S(=O)(=O)NC(=O)c2ccccc2)cc1COc1ccc(-c2ccccc2)cc1 [Compound 46, 4-(Biphenyl-4-yloxymethyl)-5-methyl-furan-2-sulfonic acid benzoylamide] | > 10 µM | – | < 0.1 µM | > 10 µM
5 | COc1ccc(-c2ccc(OCc3coc(C(=O)O)c3)cc2)cc1 [Compound 80, 4-(4′-Methoxy-biphenyl-4-yloxymethyl)-furan-2-carboxylic acid] | > 10 µM | – | < 0.316 µM | > 10 µM
6 | O=C(O)c1cc(COc2ccc3oc4ccccc4c3c2)co1 [Compound 78, 4-(Dibenzofuran-2-yloxymethyl)-furan-2-carboxylic acid] | > 3.16 µM | – | < 10 µM | > 10 µM
7 | COc1ccc(-c2ccc(NC(=O)c3cc(C(=O)NS(=O)(=O)c4ccccc4)oc3C)cc2)cc1 [Compound 25, 5-Benzenesulfonylaminocarbonyl-2-methyl-furan-3-carboxylic acid (4′-methoxy-biphenyl-4-yl)-amide] | > 10 µM | – | < 0.316 µM | > 10 µM
8 | Cc1ccccc1S(=O)(=O)NC(=O)c1cc(COc2ccc(-c3ccccc3)cc2)c(C)o1 [Compound 60, N-[4-(Biphenyl-4-yloxymethyl)-5-methyl-furan-2-carbonyl]-2-methyl-benzenesulphonamide] | > 10 µM | > 10 µM | < 0.01 µM | > 10 µM
9 | CCCC(=O)NS(=O)(=O)c1cc(COc2ccc(-c3ccccc3)cc2)c(C)o1 [Compound 61, 4-(Biphenyl-4-yloxymethyl)-5-methyl-furan-2-sulphonic acid butyryl-amide] | > 10 µM | – | < 1 µM | > 10 µM
10 | COc1ccc(-c2ccc(OCc3cc(CCC(=O)O)oc3C)cc2)cc1 [Compound 39, 3-[4-(4′-Methoxy-biphenyl-4-yloxymethyl)-5-methyl-furan-2-yl]-propionic acid] | > 10 µM | – | < 0.1 µM | > 10 µM
11 | N#Cc1ccc(-c2ccc(OCc3coc(C(=O)O)c3)cc2)cc1 [Compound 79, 4-(4′-Cyano-biphenyl-4-yloxymethyl)-furan-2-carboxylic acid] | > 10 µM | – | < 3.16 µM | > 10 µM
12 | COc1ccc(-c2ccc(NC(=O)c3cc(C(=O)O)oc3C)cc2)cc1 [Compound 24, 4-(4′-Methoxy-biphenyl-4-ylcarbamoyl)-5-methyl-furan-2-carboxylic acid] | > 10 µM | > 10 µM | < 0.316 µM | > 10 µM

Now from value to molecule:

Row | Ki (human EP2 receptor) | Ki (human EP1 receptor) | Ki (human EP4 receptor) | Ki (human EP3 receptor) | SMILES
13 | > 10 µM | – | < 0.01 µM | > 10 µM | Cc1noc(C)c1S(=O)(=O)NC(=O)c1cc(CNc2ccc(-c3ccc(OC(F)F)cc3)cc2)c(C)o1 [Compound 174, 3,5-Dimethyl-isoxazole-4-sulphonic acid {4-[(4′-difluoromethoxy-biphenyl-4-ylamino)-methyl]-5-methyl-furan-2-carbonyl}-amide]
14 | > 10 µM | – | < 3.16 µM | > 10 µM | COc1ccc(-c2ccc(OCc3cc(C(=O)O)oc3C)cc2)c(OC)c1 [Compound 140, 4-(2′,4′-Dimethoxy-biphenyl-4-yloxymethyl)-5-methyl-furan-2-carboxylic acid]
15 | > 10 µM | – | < 3.16 µM | > 10 µM | Cc1oc(C(=O)O)cc1COc1ccc(-c2c(F)cccc2F)cc1 [Compound 100, 4-(2′,6′-Difluoro-biphenyl-4-yloxymethyl)-5-methyl-furan-2-carboxylic acid]
16 | > 3.16 µM | – | < 1 µM | > 10 µM | Cc1oc(C(=O)O)cc1COc1ccc(-c2cccc(F)c2)cc1 [Compound 104, 4-(3′-Fluoro-biphenyl-4-yloxymethyl)-5-methyl-furan-2-carboxylic acid]
17 | > 10 µM | – | < 3.16 µM | > 10 µM | COc1ccc(-c2cccc(OCc3cc(C(=O)O)oc3C)c2)cc1OC [Compound 108, 4-(3′,4′-Dimethoxy-biphenyl-3-yloxymethyl)-5-methyl-furan-2-carboxylic acid]
18 | > 3.16 µM | – | < 3.16 µM | > 10 µM | O=C(O)c1cc(COc2ccc3c(c2)oc2ccccc23)co1 [Compound 81, 4-(Dibenzofuran-3-yloxymethyl)-furan-2-carboxylic acid]
19 | > 10 µM | – | < 0.316 µM | > 10 µM | CCOc1ccc(-c2ccc(OCc3cc(C(=O)O)oc3C)cc2)cc1 [Compound 98, 4-(4′-Ethoxy-biphenyl-4-yloxymethyl)-5-methyl-furan-2-carboxylic acid]
20 | > 10 µM | – | < 10 µM | > 10 µM | Cc1oc(C(=O)O)cc1COc1ccc(-c2ccccc2OC(F)(F)F)cc1 [Compound 115, 5-Methyl-4-(2′-trifluoromethoxy-biphenyl-4-yloxymethyl)-furan-2-carboxylic acid]
21 | > 10 µM | – | < 3.16 µM | > 10 µM | CSc1ccc(-c2ccc(OCc3cc(C(=O)O)oc3C)cc2)cc1 [Compound 111, 5-Methyl-4-(4′-methylsulphanyl-biphenyl-4-yloxymethyl)-furan-2-carboxylic acid]
22 | > 10 µM | – | < 10 µM | > 10 µM | Cc1oc(C(=O)O)cc1COc1ccc(-c2ncccn2)cc1 [Compound 137, 5-Methyl-4-(4-pyrimidin-2-yl-phenoxymethyl)-furan-2-carboxylic acid]
